According to patent publication US9999659B2, “Treatments using a peptide and/or vaccine” (AFFIRIS AG, priority 2012, dated 2018):

Experiments:
[1] = system: polyclonal antibodies in mouse sera raised against original PCSK9 sequence (aa 153-162 or aa 153-165); assay: Competition ELISA: mimotope competes with the original PCSK9 sequence for binding of polyclonal antibodies in mouse sera; details: 20 μg peptide incubated with sera; irrelevant peptide = 0% competition
Text: FIGS. 2A and 2B show the ability of PCSK9 mimotopes to compete with the original PCSK9 sequence (aa 153-162 or aa 153-165) for binding polyclonal antibodies in mouse sera raised specifically against the latter.
All mimotopes are compared to the negative group (0% competition by an irrelevant peptide). As a positive control for each competition ELISA the original PCSK9 sequences were used (aa 153-162 or aa 153-165).
The graphs display the ability (in percent) of the mimotopes to compete with the original PCSK9 sequence (aa 153-162 or aa 153-165) for binding polyclonal antibodies raised against the latter.
20 μg of each indicated peptide was incubated with sera from mice injected with original PCSK9 sequence (aa 153-162 or aa 153-165: SEQ ID No. 2). Sera were then incubated on ELISA plates coated with the original PCSK9 sequence (aa 153-162 or aa 153-165: SEQ ID No. 2). Detection was performed with anti-mouse IgG antibodies, ABTS was used as a chromogenic substrate and optical density (OD) was measured at 405 nm.
Mimotopes diminishing >20% subsequent binding of the polyclonal antibodies from the sera to the original human PCSK9 epitope (aa 153-162 or 153-165: SEQ ID No. 3) coated on the ELISA plates were considered as competing mimotopes and as good candidates.

[2] = system: polyclonal antibodies specific for human PCSK9 aa 153-162 or aa 153-165; assay: Binding ELISA: mimotopes coated on plates, detected by mouse sera raised against the original PCSK9 sequence; details: mimotope coated at 1 μmol/mL; titer = serum dilution where 50% of ODmax is reached
Text: FIGS. 1A and 1B show detection of PCSK9 mimotopes sequences by mouse sera containing polyclonal antibodies specific for human PCSK9 aa 153-162 or aa 153-165
The graphs display median titers from all mimotopes compared to the irrelevant negative control. As a positive control the original human PCSK9 sequence is included: aa 153-162 or aa 153-165. Mimotopes with values over 1:50.000 are considered as good candidates.
Mimotopes were coated on ELISA plates at a concentration of 1 μmol/mL. After blocking unspecific binding (1% BSA in PBS) appropriate dilutions of sera from mice injected with the original human PCSK9 sequence aa 153-162 or aa 153-165 (SEQ ID No. 3) were added and incubated for approximately 1 hour. Subsequently, detection with anti-mouse IgG antibodies was performed. ABTS was used as substrate. OD measurements were performed at 405 nm and titers were defined as the dilution of the serum where 50% of the ODmax is reached.

Substance | % Competition compared to the related control group [1] [%] | Median Titer Binding ELISA (ODmax/2) [2]
3 (ERTKSDPGAQHREF) [compound 3] | 0 | –
4 (ITELSRWPNI) [compound 4] | 0 | –
5 (TIPWNLERIT; Artificial Sequence, Mimotope) [compound 5] | 52 | 198,000
6 (VIPWNLERIT; Artificial Sequence, Mimotope) [compound 6] | 51 | 12,000
7 (AIPWNLERIT; Artificial Sequence, Mimotope) [compound 7] | 88 | 199,000
8 (SVPWNLERIT; Artificial Sequence, Mimotope) [compound 8] | 62 | 197,000
9 (SQPWNLERIT; Artificial Sequence, Mimotope) [compound 9] | 30 | 149,000
10 (SAPWNLERIT; Artificial Sequence, Mimotope) [compound 10] | 76 | 131,000
11 (SGPWNLERITPPR; Artificial Sequence, Mimotope) [compound 11] | 54 | 81,000
12 (SITWNLERIT; Artificial Sequence, Mimotope) [compound 12] | 62 | 124,000
13 (SIAWNLERIT; Artificial Sequence, Mimotope) [compound 13] | 78 | 147,000
14 (SIVWNLERITPPR; Artificial Sequence, Mimotope) [compound 14] | 78 | 146,000
15 (SIPFNLERIT; Artificial Sequence, Mimotope) [compound 15] | 15 | 42,000
16 (SIPANLERIT; Artificial Sequence, Mimotope) [compound 16] | 8 | 22,000
17 (SIPGNLERIT; Artificial Sequence, Mimotope) [compound 17] | 0 | 21,000
18 (SIPHNLERIT; Artificial Sequence, Mimotope) [compound 18] | 0 | 23,000
19 (SIPDNLERIT; Artificial Sequence, Mimotope) [compound 19] | 3 | 23,000
20 (SIPSNLERIT; Artificial Sequence, Mimotope) [compound 20] | 7 | 22,000
21 (SIPWSLERIT; Artificial Sequence, Mimotope) [compound 21] | 73 | 147,000
22 (SIPWALERIT; Artificial Sequence, Mimotope) [compound 22] | 75 | 157,000
23 (SIPWQLERITPPR; Artificial Sequence, Mimotope) [compound 23] | 79 | 224,000
24 (SIPWDLERITPPR; Artificial Sequence, Mimotope) [compound 24] | 74 | 231,000
25 (SIPWNAERIT; Artificial Sequence, Mimotope) [compound 25] | 73 | 156,000
26 (SIPWNGERIT; Artificial Sequence, Mimotope) [compound 26] | 52 | 56,000

Substance | % Competition compared to the related control group [1] [%] | Median Titer Binding ELISA (ODmax/2) [2]
27 (SIPWNYERIT; Artificial Sequence, Mimotope) [compound 27] | 76 | 115,000
28 (SIPWNDERIT; Artificial Sequence, Mimotope) [compound 28] | 71 | 131,000
29 (SIPWNFERITPPR; Artificial Sequence, Mimotope) [compound 29] | 79 | 186,000
30 (SIPWNVERITPPR; Artificial Sequence, Mimotope) [compound 30] | 78 | 197,000
31 (SIPWNLARIT; Artificial Sequence, Mimotope) [compound 31] | 13 | 34,000
32 (SIPWNLDRITPPR; Artificial Sequence, Mimotope) [compound 32] | 53 | 151,000
33 (SIPWNLEKIT; Artificial Sequence, Mimotope) [compound 33] | 19 | 59,000
34 (SIPWNLEAIT; Artificial Sequence, Mimotope) [compound 34] | 15 | 54,000
35 (SIPWNLEDIT; Artificial Sequence, Mimotope) [compound 35] | 13 | 48,000
36 (SIPWNLERLT; Artificial Sequence, Mimotope) [compound 36] | 76 | 192,000
37 (SIPWNLERTT; Artificial Sequence, Mimotope) [compound 37] | 73 | 177,000
38 (SIPWNLERAT; Artificial Sequence, Mimotope) [compound 38] | 77 | 149,000
39 (SIPWNLERIL; Artificial Sequence, Mimotope) [compound 39] | 56 | 168,000
40 (SIPWNLERIQ; Artificial Sequence, Mimotope) [compound 40] | 64 | 181,000
41 (SIPWNLERIA; Artificial Sequence, Mimotope) [compound 41] | 80 | 189,000
42 (SIPWNLERISPPR; Artificial Sequence, Mimotope) [compound 42] | 79 | 719,000
43 (SIPWNLERITAPR; Artificial Sequence, Mimotope) [compound 43] | 70 | 226,000
44 (SIPWNLERITSPR; Artificial Sequence, Mimotope) [compound 44] | 68 | 153,000
45 (SIPWNLERITPAR; Artificial Sequence, Mimotope) [compound 45] | 74 | 184,000
46 (SIPWNLERITPVR; Artificial Sequence, Mimotope) [compound 46] | 75 | 265,000
47 (SIPWNLERITPTR; Artificial Sequence, Mimotope) [compound 47] | 73 | 155,000
48 (SIPWNLERITPNR; Artificial Sequence, Mimotope) [compound 48] | 70 | 186,000
49 (SIPWNLERITPPA; Artificial Sequence, Mimotope) [compound 49] | 65 | 163,000
